From article PMC9609692, “Alternative Methotrexate Oral Formulation: Enhanced Aqueous Solubility, Bioavailability, Photostability, and Permeability” (Pharmaceutics, 2022)
Each block holds one compound with its values, some of them ahead of it.

What was measured:
[1] = Phase solubility study of MTX in cyclodextrin solutions; format: physicochemical; conditions: MTX with the cyclodextrin, aqueous solution, 25 °C, 1:1 complex
Description: The degree of complexation between MTX and β-CDs was determined through phase solubility experiments, as established by Higuchi and Conners. Briefly, an excess of MTX was added to the 10 mL aqueous solution of increasing concentrations (0 to 15 mM) containing each of β-CD, HP-β-CD, M-β-CD, and DM-β-CD. The samples tubes were then vortexed for a few seconds and placed in a water bath maintained at 100 rpm in 25 °C for 5 days (Maxturdy-30; Daihan Scientific, Wonju, Korea) to obtain the saturated complex suspension. The suspension samples obtained were then centrifuged at 10,000 rpm for 10 min and the supernatant was collected, and filtered using a 0.45 µm syringe filter. The samples were then diluted with a mobile phase to obtain the suitable concentrations before being quantified using a HPLC system. All concentrations were made in triplicate (n = 3).
The outcomes of the phase solubility tests were plotted against the known CD and MTX concentration in the sample and the resulting regression profiles was used to derive the association constant (Kα). The apparent association constant (Kα) was calculated from the phase solubility curve according to the following equation:(1) Kα=D :CD/D×CD=Slope/So1−Slope
The complexation efficiency (CE) of the IC system was calculated from the Slope of the phase solubility profiles. (2) CE=D :CD/CD=So×Kα=Slope/1−Slope

Caco-2 cells [2] = tested on: Caco-2 cells; set-up: method as in PMID 29498663, PMID 31761193; conditions: read-out: half-maximal inhibitory concentration (IC50) against Caco-2 cells; cited from earlier work
[3] = In vivo pharmacokinetic study after oral administration; set-up: species or system Sprague-Dawley rats; conditions: rats, equiv. 20 mg/kg MTX, n = 6
Description: To assess the in vivo pharmacokinetic parameters of free MTX and MTX-CD IC formulations, 30 male Sprague-Dawley rats (6–8 weeks old, weighing 280 ± 20 g) were used (Nara Biotech., Seoul, Korea). All the animals were fed with a normal laboratory diet and water and left for acclimatization in a laboratory environment for 3 days at 23–25 °C/50–55% RH. Care and handling of animals complied with the provisions of guidelines defined and agreed upon by the Institutional Animal Care and Use Committee at the Kyungpook National University (permit number. 2019-0054).
Before the experiment, the animals were divided into five groups with 6 animals per group and made to fast overnight. Each rat, anesthetized with ether, was fixed on a surgical board in the supine position by a thread. A polyethylene tube containing 50 IU/mL of heparin in saline was inserted into the right femoral artery of the rat for cannulation. Then, either 1 mL aqueous suspension of free MTX or the four MTX-CD IC formulations (Equiv. to 20 mg/kg of MTX) was administered orally to each of the rats using oral gavage. Blood samples (~0.3 mL) were drawn from the planted tube at various time periods of 5, 15, 30, 60, 120, 240, 480, 720, and 1440 min after the oral administration. The samples were then immediately transferred into heparin-containing microtubes and centrifuged at 10,000 rpm for 10 min to extract the plasma. The extracted plasma samples were transferred to other microtubes and stored at −20 °C until further analysis by HPLC.
Plasma (90 μL) was mixed with 10 μL of theophylline solution (1000 μg/mL in MeOH) as the internal standard and 100 μL of methanol, respectively. The samples (200 μL) were then centrifuged at 13,000 rpm for 10 min and the upper clear supernatant layer was drawn and injected into the HPLC system (20 μL) for the quantification of MTX. In addition, the blood samples drawn at pre-dose (0 h) were used to draw a six-point calibration plot. The Slope of the graph was linear with R^2 = 0.995 over the range of 25–2000 ng/mL. The mobile phase composition, flow rate, analytical column used, and UV wavelength of the HPLC method was similar to that described in Section 2.3. The pharmacokinetic (PK) parameters such as maximal plasma concentration (Cmax), time to reach Cmax (Tmax), were obtained from the plasma concentration vs. time plots. Moreover, the area under the plasma concentration vs. time curve (AUC0–∞) was calculated using the linear trapezoidal summation rule and elimination half-life (t1/2), and elimination rate constant (Kel) were obtained using non-compartmental model WinNonlin software (Pharsight Corp., Mountain View, CA, USA). Differences in the PK parameters were assessed with the one-way ANOVA test and a p value of less than 0.05 (p < 0.05) was considered statistically significant.

[4] = cited from earlier work
[5] = Particle size distribution by laser diffraction; format: physicochemical; conditions: powder
Description: The complete particle size distribution of free MTX powder and all four MTX-CD IC formulations was investigated by laser diffraction (Mastersizer 3000; Malvern Instruments, Malvern, UK). The particle size/distribution is expressed as Dx10, Dx50, and Dx90, taken from the cumulative distribution, where the particle diameters are measured at the 10th, 50th, and 90th percentiles, respectively. The experiments were performed in triplicate.

[6] = Photostability assessment; format: physicochemical; conditions: powder, 20 days, 25 °C/60% RH, 1.2 million lux·hr
Description: The free MTX powder and the prepared IC formulations were subjected to UV irradiation for a period of 20 days. The powdered samples were spread over the bottom surface of transparent glass vials and stored at 25 °C/60% RH in a photostability chamber (Model 6545-2; Caron, Marietta, OH, USA). There, the samples were exposed to a light source of 1.2 million lux·hr intensity. At scheduled time intervals, a few mg of the sample was drawn, and assayed for the drug content by HPLC method, as described above. At the end of the study period, the samples were physically inspected for any physical changes on the stability of MTX.

[7] = for doses >40 mg/m^2; cited from earlier work
[8] = In vitro Caco-2 permeation experiment; format: in vitro ADME; conditions: human, Caco-2 monolayer, 50 µg/mL MTX
Description: The in vitro permeability of MTX and MTX/DM-β-CD formulation was evaluated using Caco-2 cells (passage no 45) and performed like the previously reported method. The cells were seeded (5 × 10^5 cells/well) onto filter inserts from 12-well transwell plates and grown at 37 °C with 5% CO2 for 24 h. The cells were then cultured for three weeks, with the media being replaced on alternate days. Caco-2 cells with TEER ≥ 500 Ω·cm^2 were used in this experiment, which is indicative of adequate monolayer formation.
To evaluate the A to B transfer, the medium from each well was replaced with prewarmed HBSS (washing of monolayer) and maintained at 37 °C for 15 min. The HBSS solution on both sides of the cell monolayer was removed by decanting and aspiration from the lower end of the plate well. Then, 0.5 mL of HBSS (pH 7.4) medium containing 50 µg/mL of MTX alone or eqvt. concentration of MTX/DM-β-CD formulation was placed to the dosing compartment (A) and 1.5 mL of fresh HBSS in the receiving compartment (B). […] MTX was quantified at m/z 455.2 ⟶ 308.1 while berberine at m/z 336.1 ⟶ 320.0.
The apparent permeability coefficient (Papp, cm/s) was calculated as:(3) Papp=(dQ/dt)/(C0×A)
The efflux ratio (ER) was calculated as:(4) ER=Papp (B→A)/Papp (A→B) where, Papp (B → A) and Papp (A → B) represents the apparent permeability of the investigated formulations.

Caco-2 cells [9] = assay: MTT cytotoxicity assay; format: cell-based, human; conditions: up to 200 µM, 24 h incubation
Description: An MTT assay was used to assess the potential cytotoxic behavior of MTX and MTX/DM-β-CD on human intestinal epithelial cancer cells (Caco-2). The Caco-2 cells were grown in DMEM supplemented with 10% FBS, 1% v/v sodium pyruvate, L-glutamine, penicillin, and MEM non-essential amino acids. The cells (2 × 10^4 cells/well) were then seeded onto 96-well transwell plates and incubated at 37 °C with 5% CO2 for 24 h. New medium containing the tested formulations i.e., MTX and MTX/DM-β-CD (IC4), with varying concentrations, were added and incubated for 24 h. The culture medium was then aspirated, and the viability of the cells was determined by adding 20 μL/well of MTT solution to each 96-well plate and incubating for another 4 h. The formazan crystals were dissolved by adding 150 μL/well DMSO. The developed formazan was assayed at 570 nm, using a microplate reader with untreated cells serving as a control. All the tests were carried out in two microplates with six parallel wells each.

[10] = male, Sprague-Dawley, rat, plasma

- Stability Constant (Kα) [1]: 433.56 M⁻¹
Compound: 2-hydroxylpropyl-β-CD [HP-β-CD]

Compound: COc1cccc2c1C(=O)c1c(O)c3c(c(O)c1C2=O)C[C@@](O)(C(=O)CO)C[C@@H]3O[C@H]1C[C@H](N)[C@H](O)[C@H](C)O1 [doxorubicin]
- IC50 (Caco-2 cells [2]): 5 µM

- Stability Constant (Kα) [1]: 3114.69 M⁻¹
Compound: COCC1OC2OC3C(COC)OC(OC4C(COC)OC(OC5C(COC)OC(OC6C(COC)OC(OC7C(COC)OC(OC8C(COC)OC(OC1C(O)C2OC)C(OC)C8O)C(OC)C7O)C(OC)C6O)C(OC)C5O)C(OC)C4O)C(OC)C3O (stereo not drawn) [DM-β-CD, heptakis (2,6-di-O-methyl)-β-cyclodextrin]

Compound: CC(=O)O[C@@]12CO[C@@H]1C[C@H](O)[C@@]1(C)C(=O)[C@H](O)C3=C(C)[C@@H](OC(=O)[C@H](O)[C@@H](NC(=O)OC(C)(C)C)c4ccccc4)C[C@@](O)([C@@H](OC(=O)c4ccccc4)[C@H]21)C3(C)C [docetaxel]
- IC50 (Caco-2 cells [2]): 70 µM

- Stability Constant (Kα) [1]: 574.48 M⁻¹
Compound: methyl-β-cyclodextrin [M-β-CD]

Compound: CN(Cc1cnc2nc(N)nc(N)c2n1)c1ccc(C(=O)N[C@@H](CCC(=O)O)C(=O)O)cc1 [MTX, Methotrexate]
- AUC [3, 10]: 1740 ± 295 ng·h/mL
- Tmax [3, 10]: 1.13 ± 0.23 h
- half-life [3, 10]: 5.4 ± 0.72 h
- k el [3, 10]: 3.61e-05 s⁻¹
- Cmax [3]: 265.63 ± 57.05 ng/mL
- C logP [4]: 0.53
- Dx (10) [5]: 3.60 ± 0.48 μm
- Dx (50) [5]: 14.03 ± 2.97 μm
- Dx (90) [5]: 103.73 ± 12.13 μm
- decrease in MTX concentration after UV irradiation [6]: 36.8 ± 1.7%
- bioavailability [7]: ~ 18%
- Papp A→B at 1 h, 50 µg/mL ([8]; HBSS pH 7.4, 1 h, read-out: Papp A to B transport): 0.57 ± 0.14 ×10⁻⁶ cm/s
- efflux ratio at 1 h, 50 µg/mL ([8]; HBSS pH 7.4, read-out: efflux ratio (B to A/A to B)): 8
- cytotoxicity against Caco-2 cells (Caco-2 cells [9]): no substantial cytotoxicity

- Stability Constant (Kα) [1]: 552.25 M⁻¹
Compound: OC[C@H]1O[C@@H]2O[C@H]3[C@H](O)[C@@H](O)[C@@H](O[C@H]4[C@H](O)[C@@H](O)[C@@H](O[C@H]5[C@H](O)[C@@H](O)[C@@H](O[C@H]6[C@H](O)[C@@H](O)[C@@H](O[C@H]7[C@H](O)[C@@H](O)[C@@H](O[C@H]8[C@H](O)[C@@H](O)[C@@H](O[C@H]1[C@H](O)[C@H]2O)O[C@@H]8CO)O[C@@H]7CO)O[C@@H]6CO)O[C@@H]5CO)O[C@@H]4CO)O[C@@H]3CO [β-CD, β-cyclodextrin]
